According to PMC8243516, “Inhibition of lysosomal phospholipase A2 predicts drug-induced phospholipidosis” (Journal of Lipid Research, 2021):
Structures can show the parent of a compound that is named as a salt. Where two headings read alike, the source gives them in different places.

Columns and labels:
[1] = target: T1, recombinant mouse LPLA2 (PLA2G15) (Mus musculus, UniProt Q8VEB4); experiment: Transacylase activity of LPLA2 (1-O-acyl-N-acetylsphingosine synthase, cell-free liposome assay); format: biochemical
T1 construct: purchased Proteos Inc. (Kalamazoo, MI)
T1 sequence (Q8VEB4 34-412): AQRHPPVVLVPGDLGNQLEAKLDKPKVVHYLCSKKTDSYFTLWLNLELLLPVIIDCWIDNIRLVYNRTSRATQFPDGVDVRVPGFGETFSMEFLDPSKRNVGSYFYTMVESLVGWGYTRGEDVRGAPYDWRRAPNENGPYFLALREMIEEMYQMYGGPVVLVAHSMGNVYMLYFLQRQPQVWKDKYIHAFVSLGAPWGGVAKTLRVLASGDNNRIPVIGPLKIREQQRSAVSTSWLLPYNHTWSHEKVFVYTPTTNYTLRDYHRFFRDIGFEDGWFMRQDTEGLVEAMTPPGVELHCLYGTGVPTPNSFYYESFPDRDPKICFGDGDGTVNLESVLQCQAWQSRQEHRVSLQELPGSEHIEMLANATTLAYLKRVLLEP

LPLA2 = target: T2, LPLA2 (Mus musculus, UniProt Q8VEB4); experiment: LPLA2 thermal stability measurement (SYPRO Orange Tm); format: binding
T2 construct: purchased Proteos Inc. (Kalamazoo, MI)
T2 sequence (Q8VEB4 34-412): T1 sequence (Q8VEB4 34-412)

[2] = ref Pubchem and chEMBL databases; cited from earlier work
phospholipidosis = conditions: cited from earlier work
[3] = 1-O-acyl N-acetylsphingosine synthase activity, pH 4.5, DOPC/sulfatide liposomes, read-out: LPLA2 IC50
[4] = phospholipidosis reported in vitro, Refs of Table 1

SMILES	IC50 [1, 3] [µM]	(ΔTm)c-(ΔTm)d, difference in melting temperature of LPLA2 alone or in the presence of drug (LPLA2; N=3 ± SD) [°C]	pKa (basic) [2]	In Vitro PLD (phospholipidosis; [4])	other results
CC(CN(C)C)CN1c2ccccc2CCc2ccccc21 (stereo not drawn) [Trimipramine, (3-{2-azatricyclo[9.4.0.0³,^8]pentadeca-1(15),3,5,7,11, 13-hexaen-2-yl}-2-methylpropyl)dimethylamine]	268	0.56 ± 0.0	9.42	Yes	–
C[C@]12C[C@H](O)[C@H]3[C@@H](CCC4=CC(=O)CC[C@@]43C)[C@@H]1CC[C@@H]2C(=O)CO [Corticosterone, (1S,2R,10S,11S,14S,15S,17S)-17-hydroxy-14-(2-hydroxyacetyl)-2,15-dimethyltetracyclo[8.7.0.0^2,^7.0^11,^15]heptadec-6-en-5-one]	163	0	-0.26	Yes	–
O=C(Nc1cccc2c(=O)cc(-c3nnn[nH]3)oc12)c1ccc(OCCCCc2ccccc2)cc1 [Pranlukast, N-[4-oxo-2-(2H-1,2,3,4-tetrazol-5-yl)-4H-chromen-8-yl]-4-(4-phenylbutoxy)benzamide]	–	0	-1.7	Yes	–
Clc1ccc(C(c2ccccc2Cl)C(Cl)Cl)cc1 (stereo not drawn) [Mitotane, 1-chloro-4-[2,2-dichloro-1-(2-chlorophenyl)ethyl] benzene]	132	–	–	Yes	(ΔTm)c-(ΔTm)d, difference in melting temperature of LPLA2 alone or in the presence of drug (LPLA2): 0.47 ± 0.1 °C
C[C@]12C=CC(=O)N[C@@H]1CC[C@@H]1[C@@H]2CC[C@]2(C)[C@@H](C(=O)Nc3cc(C(F)(F)F)ccc3C(F)(F)F)CC[C@@H]12 [Dutasteride, (1S,2R,7R,10S,11S,14S,15S)-N-[2,5-bis (trifluoromethyl)phenyl]-2,15-dimethyl-5-oxo-6-azatetracyclo[8.7.0.0^2,^7.0^11,^15]heptadec-3-ene-14-carboxamide]	1050	–	2.17	Yes	–
CCCOc1ccc(C(=O)OCCN(CC)CC)cc1N [Proparacaine, 2-(diethylamino)ethyl 3-amino-4-propoxybenzoate]	2470	0	8.56	Yes	LPLA2 inhibition (in words) ([1]; acyl transferase activity): millimolar concentrations
CN1CCN2c3ccccc3Cc3ccccc3C2C1 (stereo not drawn) [Mianserin, 5-methyl-2,5 diazatetracyclo [13.4.0.0^2,^7.0^8,^1³] nonadeca-1(19),8,10,12,15,17-hexaene]	–	–	6.9	Yes	–
CCCN(CCC)CCc1cccc2c1CC(=O)N2 [Ropinirole, 4-[2-(dipropylamino)ethyl]-2,3-dihydro-1H-indol-2-one]	–	–	10.17	Yes	–
c1ccc2c(CC3=NCCN3)cccc2c1 [Naphazoline, 2-(naphthalen-1-ylmethyl)-4,5-dihydro-1H-imidazole]	–	–	10.19	Yes	–
CC12CC3CC(C)(C1)CC(N)(C3)C2.Cl [Memantine, 3,5-Dimethyl-1-adamantanamine hydrochloride]	35.7	2.00 ± 0.2	–	Yes	–
CC(C)(C)NCC(O)c1cc(Cl)c(N)c(Cl)c1.Cl (stereo not drawn) [Clenbuterol, 4-amino-3,5-dichloro-α-[[(1,1-dimethylethyl)amino]methyl]-benzenemethanol, monohydrochloride]	–	1.20 ± 0.23	–	Yes	LPLA2 inhibition (in words) [1]: millimolar concentrations; IC50 ([1]; LPLA2 IC50): 7300 µM
O=C(CCCN1CCC2(CC1)C(=O)NCN2c1ccccc1)c1ccc(F)cc1 [Spiperone, 8-[3-(p-fluor benzoyl)propyl]-1-phenyl-1,3,8-triazaspiro [4.5]decan-4-one]	519	1.86 ± 0.1	–	Yes	–
CN(C)CCOC(c1ccccc1)c1ccccc1 [Diphenhydramine]	–	–	–	Yes	–
CN1CCC(=C2c3ccccc3CC(=O)c3sccc32)CC1 [Ketotifen]	19.7	0.10 ± 0.0	–	Yes	–
CC1=C(CC(=O)O)c2cc(F)ccc2/C1=C\c1ccc([S+](C)[O-])cc1 (stereo not drawn) [Sulindac, 2-[(1Z)-5-fluoro-1-[(4-methanesulfinylphenyl)methylidene]-2-methyl-1H-inden-3-yl]acetic acid]	10.9	-0.10 ± 0.0	–	Yes	–
CC(C)N=c1cc2n(-c3ccc(Cl)cc3)c3ccccc3nc-2cc1Nc1ccc(Cl)cc1 [Clofazimine, N,5-bis(4-chlorophenyl)-3,5-dihydro-3-(isopropylimino)phenazin-2-amine]	10.8	-0.97 ± 0.1	–	Yes	–
CN(C)CCN(Cc1cccs1)c1ccccn1 [Methapyrilene, N-[2-(dimethylamino)ethyl]-N-[(thiophen-2-yl)methyl]pyridin-2-amine]	–	–	8.85	Yes	–
CCN(CC)CCc1nc(-c2ccccc2)no1 [Oxolamine citrate, diethyl[2-(3-phenyl-1,2,4-oxadiazol-5-yl)ethyl]amine]	369	–	8.96	Yes	–
COc1ccc(CCN2CCC(Nc3nc4ccccc4n3Cc3ccc(F)cc3)CC2)cc1 [Astemizole, 1-(4-fluorobenzyl)-2-(1-[4-methoxyphenethyl]piperidin-4-yl)aminobenzimidazole]	–	–	8.75	Yes	–
CC(C)COCC(CN(Cc1ccccc1)c1ccccc1)N1CCCC1.Cl (stereo not drawn) [Bepridil hydrochloride, 1-isobutoxy-2-pyrrolidino-3-(N-benzylanilino) propane hydrochloride]	7.17	–	9.16	–	In Vitro PLD (phospholipidosis): Yes
CCOC(=O)N1CCC(=C2c3ccc(Cl)cc3CCc3cccnc32)CC1 [Loratadine, ethyl 4-{13-chloro-4-azatricyclo[9.4.0.0^3,^8]pentadeca-1(11),3(8),4,6,12,14-hexaen-2-ylidene}piperidine-1-carboxylate]	8.94	–	–	Yes	–
CC[C@H]1OC(=O)[C@H](C)[C@@H](O[C@H]2C[C@@](C)(OC)[C@@H](O)[C@H](C)O2)[C@H](C)[C@@H](O[C@@H]2O[C@H](C)C[C@H](N(C)C)[C@H]2O)[C@](C)(O)C[C@@H](C)C(=O)[C@H](C)[C@@H](O)[C@]1(C)O [Erythromycin, (3R,4S,5S,6R,7R,9R,11R,12R,13S,14R)-6-{[(2S,3R,4S,6R)-4-(dimethylamino)-3-hydroxy-6-methyloxan-2-yl]oxy}-14-ethyl-7,12,13-trihydroxy-4-{[(2R,4R,5S,6S)-5-hydroxy-4-methoxy-4,6-dimethyloxan-2-yl]oxy}-3,5,7,9,11,13-hexamethyl-1-oxacyclotetradecane-2,10-dione]	117	-0.48 ± 0.4	8.38	–	–
CC(C)OC(=O)C(C)(C)Oc1ccc(C(=O)c2ccc(Cl)cc2)cc1 [Fenofibrate, 2-[4-(4-chlorobenzoyl)phenoxy]-2-methylpropanoic acid isopropyl ester]	2.25	0.44 ± 0.7	-4.9	–	–
Nc1c2c(nc3ccccc13)CCCC2 [Tacrine, 1,2,3,4-tetrahydroacridin-9-amine]	–	–	–	–	In Vitro PLD (phospholipidosis): Yes
CN1CCC[C@@H]1CCO[C@](C)(c1ccccc1)c1ccc(Cl)cc1 [Clemastine]	–	–	9.55	Yes	–
CCN(CC)CC#CCOC(=O)C(O)(c1ccccc1)C1CCCCC1 (stereo not drawn) [Oxybutynin, α-phenylcyclohexaneglycolic acid 4-(diethylamino)-2-butynyl ster hydrochloride]	–	–	8.77	Yes	–
O=C(O)c1cc(O)ccc1O [Gentisic acid, 2,5-dihydroxybenzoic acid sodium salt]	–	–	–	Yes	–
CC(C)(C)c1ccc(CN2CCN(C(c3ccccc3)c3ccc(Cl)cc3)CC2)cc1 (stereo not drawn) [Buclizine, 1-((4-chlorophenyl)phenylmethyl)-4-((4-(1,1-dimethylethyl)phenyl)methyl)piperazine]	9.13	0.63 ± 0.1	8.04	–	–
CC(C)C[C@H]1C(=O)N2CCC[C@H]2[C@]2(O)O[C@](NC(=O)[C@@H]3C=C4c5cccc6[nH]c(Br)c(c56)C[C@H]4N(C)C3)(C(C)C)C(=O)N12 [Bromocriptine, (4R,7R)-10-bromo-N-[(1S,2S,4R,7S)-2-hydroxy-7-(2-methylpropyl)-5,8-dioxo-4-(propan-2-yl)-3-oxa-6,9-diazatricyclo[7.3.0.0ˆ{2,6}]dodecan-4-yl]-6-methyl-6,11diazatetracyclo[7.6.1.0ˆ{2,7}.0ˆ{12,16}]hexadeca-1(16),2,9,12,14-pentaene-4-carboxamide]	125	–	6.71	Yes	–
